From publication PMC10444810, “Induction of open-form bile canaliculus formation by hepatocytes for evaluation of biliary drug excretion” (Communications Biology, 2023)
Several values for one entry are separate records, joined by “and”; a condition that tells them apart may be missing. Equal entries are not always repeated.

Test system: icHep (PXB-cells on claudin-1, -2, -3, -9 coated Transwell permeable support)
Assay: icHep permeation assay (sinusoidal to bile side) to estimate drug biliary excretion clearance
Details: for In vitro CLbile, app: single replicates; for Predicted in vivo CLbile, int, Mean: mean of 3; for In vitro CLbile, int / Predicted in vivo CLbile, int: single replicate; for Biliary excretion clearance, in vivo, predicted, CLbile, int: scaled up from in vitro CLbile,int, mean ± S.D., n = 3
[1] = Control, block with icHep (HUM181001B)
[2] = Control, block with icHep (JFC)

| SMILES | In vitro CLbile, app, Mean [1] [ul/min/106 cells] | In vitro CLbile, app [1] | In vitro CLbile, app, Mean [2] [ul/min/106 cells] | In vitro CLbile, app [2] | Predicted in vivo CLbile, int, Mean (icHep (HUM181001B)) [mL/min] | In vitro CLbile, int (icHep (HUM181001B)) | Predicted in vivo CLbile, int (icHep (HUM181001B)) | In vitro CLbile, app, Mean (icHep (HUM181001B)) [ul/min/106 cells] | Biliary excretion clearance, in vivo, predicted, CLbile, int (icHep (HUM181001B)) [mL/min] | In vitro CLbile, app (icHep (HUM181001B)) | Predicted in vivo CLbile, int, Mean (icHep (JFC)) [mL/min] | In vitro CLbile, int (icHep (JFC)) | Predicted in vivo CLbile, int (icHep (JFC)) | In vitro CLbile, app, Mean (icHep (JFC)) [ul/min/106 cells] | Biliary excretion clearance, in vivo, predicted, CLbile, int (icHep (JFC)) [mL/min] | In vitro CLbile, app (icHep (JFC)) |
| --- | --- | --- | --- | --- | --- | --- | --- | --- | --- | --- | --- | --- | --- | --- | --- | --- |
| CN/C(=N/CCSCc1nc[nH]c1C)NC#N [Cimetidine, cimetidine] | 0.585 | 0.596 ul/min/106 cells and 0.590 ul/min/106 cells and 0.570 ul/min/106 cells | 1.14 | 1.06 ul/min/106 cells and 1.22 ul/min/106 cells and 1.15 ul/min/106 cells | 97.8 | 0.316 ul/min/106 cells and 0.409 ul/min/106 cells and 0.633 ul/min/106 cells | 68.3 mL/min and 88.4 mL/min and 137 mL/min | 1.04 | 97.8 ± 35.1 | 0.913 ul/min/106 cells and 1.00 ul/min/106 cells and 1.20 ul/min/106 cells | 188 | 0.810 ul/min/106 cells and 1.04 ul/min/106 cells and 0.756 ul/min/106 cells | 175 mL/min and 225 mL/min and 163 mL/min | 2.01 | 188 ± 32.8 | 1.87 ul/min/106 cells and 2.26 ul/min/106 cells and 1.90 ul/min/106 cells |
| C[C@H]1O[C@@H](O[C@H]2[C@@H](O)C[C@H](O[C@H]3[C@@H](O)C[C@H](O[C@H]4CC[C@@]5(C)[C@H](CC[C@@H]6[C@@H]5C[C@@H](O)[C@]5(C)[C@@H](C7=CC(=O)OC7)CC[C@]65O)C4)O[C@@H]3C)O[C@@H]2C)C[C@H](O)[C@@H]1O [Digoxin, digoxin] |  |  |  |  |  |  | 242 mL/min and 175 mL/min |  |  |  |  |  | 71.3 mL/min and 159 mL/min and 72.7 mL/min |  |  |  |
| CC[C@H]1OC(=O)[C@H](C)[C@@H](O[C@H]2C[C@@](C)(OC)[C@@H](O)[C@H](C)O2)[C@H](C)[C@@H](O[C@@H]2O[C@H](C)C[C@H](N(C)C)[C@H]2O)[C@](C)(O)C[C@@H](C)C(=O)[C@H](C)[C@@H](O)[C@]1(C)O [Erythromycin, erythromycin] | 0.624 | 0.611 ul/min/106 cells and 0.632 ul/min/106 cells and 0.630 ul/min/106 cells |  | 1.41 ul/min/106 cells and 1.36 ul/min/106 cells and 1.35 ul/min/106 cells | 171 | 0.865 ul/min/106 cells and 0.795 ul/min/106 cells and 0.720 ul/min/106 cells | 187 mL/min and 172 mL/min and 155 mL/min |  | 171 ± 15.6 | 1.48 ul/min/106 cells and 1.43 ul/min/106 cells and 1.35 ul/min/106 cells | 158 | 0.650 ul/min/106 cells and 0.762 ul/min/106 cells and 0.784 ul/min/106 cells | 140 mL/min and 165 mL/min and 169 mL/min |  | 158 ± 15.6 | 2.06 ul/min/106 cells and 2.13 ul/min/106 cells |
| CN(Cc1cnc2nc(N)nc(N)c2n1)c1ccc(C(=O)N[C@@H](CCC(=O)O)C(=O)O)cc1 [Methotrexate, methotrexate] | 1.51 | 1.65 ul/min/106 cells and 1.43 ul/min/106 cells and 1.44 ul/min/106 cells | 1.37 | 1.41 ul/min/106 cells and 1.36 ul/min/106 cells and 1.35 ul/min/106 cells | 157 | 0.425 ul/min/106 cells and 0.942 ul/min/106 cells and 0.808 ul/min/106 cells | 91.9 mL/min and 203 mL/min and 175 mL/min | 2.23 | 157 ± 57.9 | 2.08 ul/min/106 cells and 2.37 ul/min/106 cells and 2.25 ul/min/106 cells | 241 | 1.21 ul/min/106 cells and 1.27 ul/min/106 cells and 0.865 ul/min/106 cells | 261 mL/min and 274 mL/min and 187 mL/min | 2.11 | 241 ± 46.9 | 2.06 ul/min/106 cells and 2.12 ul/min/106 cells and 2.13 ul/min/106 cells |
| CCOc1ccc2ccccc2c1C(=O)N[C@@H]1C(=O)N2[C@@H]1SC(C)(C)[C@@H]2C(=O)O [Nafcillin, nafcillin] | 0.838 | 0.848 ul/min/106 cells and 0.836 ul/min/106 cells and 0.830 ul/min/106 cells | 1.10 | 0.724 ul/min/106 cells and 1.28 ul/min/106 cells and 1.30 ul/min/106 cells | 232 | 0.964 ul/min/106 cells and 1.03 ul/min/106 cells and 1.23 ul/min/106 cells | 208 mL/min and 222 mL/min and 266 mL/min | 1.91 | 232 ± 30.1 | 1.81 ul/min/106 cells and 1.86 ul/min/106 cells and 2.06 ul/min/106 cells | 479 | 3.37 ul/min/106 cells and 1.82 ul/min/106 cells and 1.47 ul/min/106 cells | 727 mL/min and 394 mL/min and 316 mL/min | 3.32 | 479 ± 218 | 4.09 ul/min/106 cells and 3.10 ul/min/106 cells and 2.77 ul/min/106 cells |
| CC[C@]1(O)C[C@H]2CN(CCc3c([nH]c4ccccc34)[C@@](C(=O)OC)(c3cc4c(cc3OC)N(C=O)[C@H]3[C@@](O)(C(=O)OC)[C@H](OC(C)=O)[C@]5(CC)C=CCN6CC[C@]43[C@@H]65)C2)C1 [Vincristine, vincristine] | 0.159 | 0.124 ul/min/106 cells and 0.154 ul/min/106 cells and 0.199 ul/min/106 cells | 0.205 | 0.186 ul/min/106 cells and 0.220 ul/min/106 cells and 0.208 ul/min/106 cells | 27.6 | 0.176 ul/min/106 cells and 0.118 ul/min/106 cells and 0.0898 ul/min/106 cells | 38.0 mL/min and 25.6 mL/min and 19.4 mL/min | 0.287 | 27.6 ± 9.46 | 0.300 ul/min/106 cells and 0.273 ul/min/106 cells and 0.289 ul/min/106 cells | 37.3 | 0.159 ul/min/106 cells and 0.230 ul/min/106 cells and 0.129 ul/min/106 cells | 34.3 mL/min and 49.7 mL/min and 27.8 mL/min | 0.377 | 37.3 ± 11.2 | 0.345 ul/min/106 cells and 0.450 ul/min/106 cells and 0.337 ul/min/106 cells |
